# Tests used:
# [1] = tested on: Leishmania braziliensis stationary promastigotes; assay: In vitro antileishmanial activity against promastigotes (MTT); type: cell-based; settings: Leishmania braziliensis; 48 h at 24 °C, MTT, mean ± standard deviation
# Method: The study was approved by the Committee for the Ethical Handling of Research Animals from the Federal University of Minas Gerais (protocol number 085/2017). Leishmania braziliensis (MHOM/BR/1975/M2904) promastigotes were grown at 24 °C in Schneider’s medium (Sigma-Aldrich, USA) supplemented with 20% heat-inactivated fetal bovine serum (FBS, Sigma-Aldrich, USA) and 20 mmol/L L-glutamine at pH 7.4 [65].
# (§1) The in vitro antileishmanial activity was evaluated by incubating the promastigotes or axenic amastigotes (1 × 10^6 cells/well) with the 24 synthetic derivatives (Compounds 5–28; 0 to 600 µg/mL) in 96-well culture plates (Nunc, Nunclon, Roskilde, Denmark) for 48 h at 24 °C. Due to the difficulty in obtaining a high concentration of murine macrophages, the cytotoxicity experiment was evaluated by incubating such cells (5 × 10^5 per mL) with Compound 28 (0 to 600 µg/mL), which presented the best antileishmanial activity, for 48 h at 37 °C in a 5% CO2 environment. AmpB (0 to 10 µg/mL; Sigma-Aldrich, St. Louis, MO, USA) was used as a positive control in both experiments. The cell viability was assessed using the 3-(4.5-dimethylthiazol-2-yl)-2.5-diphenyl tetrazolium bromide (MTT, Sigma-Aldrich, St. Louis, MO, USA) method. The optical density (OD) values were read using a microplate spectrophotometer (Molecular Devices, Spectra Max Plus, San Jose, CA, USA) at 570 nm. Results were entered into Microsoft Excel (version 10.0) spreadsheets, and the 50% Leishmania and macrophage inhibitory concentrations (IC50 and CC50, respectively) were calculated by applying a sigmoidal regression of the dose–response curve. The SI was calculated by dividing the CC50 with the respective IC50 values.
# [2] = tested on: Leishmania braziliensis axenic amastigotes; assay: In vitro antileishmanial activity against axenic amastigotes (MTT); type: cell-based; settings: Leishmania braziliensis, 48 h, 48 h at 24 °C, MTT, mean ± standard deviation
# Method: To obtain the axenic amastigotes, 1 × 10^9 stationary promastigotes were washed three times in sterile phosphate-buffered saline (PBS) and incubated in 5 mL FBS for 48 h at 37 °C. Parasites were washed with cold PBS, and their morphology was evaluated with an optical microscope after Giemsa staining as previously described.
# as §1
Structure (SMILES),IC50 [1],IC50 [2],melting point
"COc1ccc(/C=C/C(=O)NCc2cn(Cc3ccc(C(F)(F)F)cc3)nn2)cc1 [Compound 14, N-((1-(4-(trifluoromethyl)benzyl)-1H-1,2,3-triazol-4-yl)methyl) (4-methoxy) cinnamide]",> 600 µg/mL,> 600 µg/mL,220.5 to 221.9 °C
"COc1ccc(/C=C/C(=O)NCc2cn(Cc3ccc(C(C)C)cc3)nn2)cc1OC [Compound 17, N-((1-(4-isopropylbenzyl)-1H-1,2,3-triazol-4-yl)methyl) (3,4-dimethoxy) cinnamide]",> 600 µg/mL,> 600 µg/mL,175.5 to 176.4 °C
"COc1ccc(/C=C/C(=O)NCc2cn(Cc3ccc([N+](=O)[O-])cc3)nn2)cc1 [Compound 11, N-((1-(4-nitrobenzyl)-1H-1,2,3-triazol-4-yl)methyl) (4-methoxy) cinnamide]",> 600 µg/mL,> 600 µg/mL,192.2 to 193.4 °C
"COc1ccc(/C=C/C(=O)NCc2cn(Cc3ccc(Br)cc3)nn2)cc1 [Compound 9, N-((1-(4-bromobenzyl)-1H-1,2,3-triazol-4-yl)methyl) (4-methoxy) cinnamide]",> 600 µg/mL,> 600 µg/mL,193.1 to 194.7 °C
"COc1ccc(/C=C/C(=O)NCc2cn(Cc3ccc(I)cc3)nn2)cc1 [Compound 10, N-((1-(4-iodobenzyl)-1H-1,2,3-triazol-4-yl)methyl) (4-methoxy) cinnamide]",> 600 µg/mL,> 600 µg/mL,200.6 to 202 °C
"COc1ccc(/C=C/C(=O)NCc2cn(Cc3ccc(Cl)cc3)nn2)cc1OC [Compound 19, N-((1-(4-chlorobenzyl)-1H-1,2,3-triazol-4-yl)methyl) (3,4-dimethoxy) cinnamide]",> 600 µg/mL,> 600 µg/mL,189.6 to 190.8 °C
"COc1ccc(/C=C/C(=O)NCc2cn(Cc3ccc(F)c(F)c3)nn2)cc1OC [Compound 26, N-((1-(3,4-difluorobenzyl)-1H-1,2,3-triazol-4-yl)methyl) (3,4-dimethoxy) cinnamide]",> 600 µg/mL,> 600 µg/mL,166 to 167.2 °C
"COc1ccc(Cn2cc(CNC(=O)/C=C/c3ccc(OC)c(OC)c3)nn2)cc1 [Compound 23, N-((1-(4-methoxybenzyl)-1H-1,2,3-triazol-4-yl)methyl) (3,4-dimethoxy) cinnamide]",> 600 µg/mL,> 600 µg/mL,171.2 to 172 °C
"COc1ccc(/C=C/C(=O)NCc2cn(Cc3ccc(F)c(F)c3)nn2)cc1 [Compound 15, N-((1-(3,4-difluorobenzyl)-1H-1,2,3-triazol-4-yl)methyl) (4-methoxy) cinnamide]",> 600 µg/mL,> 600 µg/mL,166.3 to 167.7 °C
"COc1ccc(/C=C/C(=O)NCc2cn(Cc3ccc(OC(F)(F)F)cc3)nn2)cc1 [Compound 13, N-((1-(4-(trifluoromethoxy)benzyl)-1H-1,2,3-triazol-4-yl)methyl) (4-methoxy) cinnamide]",> 600 µg/mL,> 600 µg/mL,191.4 to 193 °C
"COc1ccc(/C=C/C(=O)NCc2cn(Cc3ccc(I)cc3)nn2)cc1OC [Compound 21, N-((1-(4-iodobenzyl)-1H-1,2,3-triazol-4-yl)methyl) (3,4-dimethoxy) cinnamide]",> 600 µg/mL,> 600 µg/mL,194 to 194.9 °C
"COc1ccc(/C=C/C(=O)NCc2cn(Cc3ccc(C)cc3)nn2)cc1 [Compound 5, N-((1-(4-methylbenzyl)-1H-1,2,3-triazol-4-yl)methyl) (4-methoxy) Cinnamide]",> 600 µg/mL,> 600 µg/mL,166 to 167.2 °C
"COc1ccc(/C=C/C(=O)NCc2cn(Cc3ccc(OC)cc3)nn2)cc1 [Compound 12, N-((1-(4-methoxybenzyl)-1H-1,2,3-triazol-4-yl)methyl) (4-methoxy) cinnamide]",> 600 µg/mL,> 600 µg/mL,169 to 170.2 °C

# Other lines, results leading:
IC50 [1],IC50 [2],melting point,Structure (SMILES)
> 600 µg/mL,> 600 µg/mL,191.3 to 192.7 °C,"CCN(CC)c1ccc2cc(-n3cc(CNC(=O)/C=C/c4ccc(OC)cc4)nn3)c(=O)oc2c1 [Compound 27, N-((1-(7-(diethylamino)-2-oxo-2H-chromen-3-yl)-1H-1,2,3-triazol-4-yl)methyl) (4-methoxy) cinnamide]"
> 600 µg/mL,> 600 µg/mL,185.7 to 186.5 °C,"COc1ccc(/C=C/C(=O)NCc2cn(Cc3ccc(Cl)cc3)nn2)cc1 [Compound 8, N-((1-(4-chlorobenzyl)-1H-1,2,3-triazol-4-yl)methyl) (4-methoxy) cinnamide]"
> 600 µg/mL,> 600 µg/mL,196.4 to 197.6 °C,"COc1ccc(/C=C/C(=O)NCc2cn(Cc3ccc(C(F)(F)F)cc3)nn2)cc1OC [Compound 25, N-((1-(4-(trifluoromethyl)benzyl)-1H-1,2,3-triazol-4-yl)methyl) (3,4-dimethoxy) cinnamide]"
> 600 µg/mL,> 600 µg/mL,198.2 to 199.6 °C,"COc1ccc(/C=C/C(=O)NCc2cn(Cc3ccc(Br)cc3)nn2)cc1OC [Compound 20, N-((1-(4-bromobenzyl)-1H-1,2,3-triazol-4-yl)methyl) (3,4-dimethoxy) cinnamide]"
> 600 µg/mL,> 600 µg/mL,217.6 to 218.9 °C,"COc1ccc(/C=C/C(=O)NCc2cn(Cc3ccc([N+](=O)[O-])cc3)nn2)cc1OC [Compound 22, N-((1-(4-nitrobenzyl)-1H-1,2,3-triazol-4-yl)methyl) (3,4-dimethoxy) cinnamide]"
> 600 µg/mL,> 600 µg/mL,178.6 to 180 °C,"COc1ccc(/C=C/C(=O)NCc2cn(Cc3ccc(F)cc3)nn2)cc1 [Compound 7, N-((1-(4-fluorobenzyl)-1H-1,2,3-triazol-4-yl)methyl) (4-methoxy) cinnamide]"
> 600 µg/mL,> 600 µg/mL,191.6 to 192.2 °C,"COc1ccc(/C=C/C(=O)NCc2cn(Cc3ccc(C)cc3)nn2)cc1OC [Compound 16, N-((1-(4-methylbenzyl)-1H-1,2,3-triazol-4-yl)methyl) (3,4-dimethoxy) cinnamide]"
> 600 µg/mL,> 600 µg/mL,177.4 to 178.6 °C,"COc1ccc(/C=C/C(=O)NCc2cn(Cc3ccc(OC(F)(F)F)cc3)nn2)cc1OC [Compound 24, N-((1-(4-(trifluoromethoxy)benzyl)-1H-1,2,3-triazol-4-yl)methyl) (3,4-dimethoxy) cinnamide]"
> 600 µg/mL,> 600 µg/mL,187.4 to 188.3 °C,"COc1ccc(/C=C/C(=O)NCc2cn(Cc3ccc(C(C)C)cc3)nn2)cc1 [Compound 6, N-((1-(4-isopropylbenzyl)-1H-1,2,3-triazol-4-yl)methyl) (4-methoxy) cinnamide]"
> 600 µg/mL,> 600 µg/mL,174.8 to 175.5 °C,"COc1ccc(/C=C/C(=O)NCc2cn(Cc3ccc(F)cc3)nn2)cc1OC [Compound 18, N-((1-(4-fluorobenzyl)-1H-1,2,3-triazol-4-yl)methyl) (3,4-dimethoxy) cinnamide]"

# Source: publication PMC10459042, “Synthesis of 1,2,3-Triazole-Containing Methoxylated Cinnamides and Their Antileishmanial Activity against the Leishmania braziliensis Species” (Pharmaceuticals, 2023)
